Source: patent US11643428B2, “Therapeutic drug for neurodegenerative disease and application thereof” (SHANGHAI PHARMACEUTICALS HOLDING CO., LTD., priority 2018, dated 2023)

Experiments:
[1] = system: AD mice; experiment: Aβ plaques in brain, thioflavin S staining; format: in vivo, mouse; conditions: 10 mg/kg intragastrically, 90 days, vs control group
Protocol: The inventors conducted PL201 administration experiments on AD mice (5-6 months aged AD mice were selected). Each mouse was intragastrically administrated 100 μl PL201, and the dosage was 10 mg/kg mouse body weight. Moreover, mice in the control group were administrated 100 μl water once daily for 90 days, and from Day 60 were intraperitoneally injected with 5-bromo-2′-deoxyuridine (BrdU) of 50 mg/kg mouse body weight once daily for 7 days. After 90 days of administration, the mice were perfused with PFA after anesthesia, and the whole brain was taken for further experiments.
The inventors performed frozen sectioning coronally with a thickness of 30 μm on the whole brain sample of AD mice after administration in example 2, and the slices were stained with thioflavin S and DAPI. The stained brain slices were then photographed with Olympus FV100i or Leica SP-8.

[2] = system: mouse BV-2 cell line; experiment: Expression of inflammatory factors in LPS-treated BV-2 cells by QPCR; format: cell-based; conditions: PL201 10, 30, 100 μM, LPS 300 ng/ml, 24 hours
Protocol: Neuroinflammation in the brain of AD is one of the causes of cognitive decline. Microglial cells are the key cells that mediate neuroinflammation. In this example, the inventors have explored whether PL201 has the effect of inhibiting neuroinflammation by detecting the expressions of inflammatory factors on mouse BV-2 cell line.
BV-2 cells were cultured in DMEM, plated to 24 well plates and cultured for 24 hours, then PL201 (0, 10, 30, and 100 μM) and LPS (300 ng/ml) were added. After co-incubation for 24 hours, Trizol was used to extract RNA and the expressions of related inflammatory factors were detected by QPCR.
Mouse BV-2 cells were cultured in DMEM, plated to 24 well plates and cultured for 24 hours, then PL202 (0, 30, 100, and 300 μM) and LPS (300 ng/ml) were added. After co-incubation for 24 hours, Trizol was used to extract RNA and the expressions of related inflammatory factors were detected by QPCR.

[3] = system: Human neural stem cells; experiment: Neural stem cell proliferation under Aβ by EdU incorporation; format: cell-based; conditions: Aβ 5 μM pre-treatment 30 minutes, PL201 30 μM, 72 hours
Protocol: As the main pathogenic protein of AD, Aβ inhibits neural stem cell proliferation. In this example, the inventors detected the levels of human neural stem cell proliferation by EdU incorporation, and tested whether PL201 can alleviate the inhibition effect of Aβ on the proliferation of neural stem cells.
Human neural stem cells (3 L) were cultured in DMEM/F12 (containing N2/B27 and 10 ng/ml bFGF), plated to 96 well plates and incubated for 24 hours, then Aβ (5 μM) was added to pre-treat the cells for 30 minutes, and then PL201 (30 μM) was added. After co-incubation for 72 hours, the proliferation level of neural stem cells was detected by EdU staining.

[4] = system: neuroblastoma cells SK-N-SH; experiment: Total Aβ in supernatant of SK-N-SH cells by ELISA; format: cell-based; conditions: 30, 100, 300 μM, 24 hours
Protocol: Culture of neuroblastoma cells SK-N-SH and Aβ detection: SK-N-SH cells were cultured in DMEM, plated to 24 well plates and cultured for 24 hours, then PL201 (0, 30, 100, and 300 μM) was added. After co-incubation for 24 hours, the protein level of total Aβ in supernatant was detected by ELISA.
Culture of neuroblastoma cells SK-N-SH and Aβ detection: SK-N-SH cells were cultured in DMEM, plated to 24 well plates and cultured for 24 hours, then PL202 (0, 30, and 100 μM) was added. After co-incubation for 24 hours, protein level of total Aβ in supernatant was detected by ELISA.
Culture of neuroblastoma cells SK-N-SH and Aβ detection: SK-N-SH cells were cultured in DMEM, plated to 24 well plates and cultured for 24 hours, then PL171 (300 μM) was added. After co-incubation for 24 hours, protein level of total Aβ in supernatant was detected by ELISA.
Culture of neuroblastoma cells SK-N-SH and Aβ detection: SK-N-SH cells were cultured in DMEM, plated to 24 well plates and cultured for 24 hours, then PL172 (300 μM) was added. After co-incubation for 24 hours, protein level of total Aβ in supernatant was detected by ELISA.

[5] = system: AMPK phosphorylation in human neural stem cells; experiment: AMPK phosphorylation level by western blot; format: cell-based; conditions: Aβ 5 μM pre-treatment 30 minutes, PL201 30 PM, 72 hours
Protocol: The changes of mitochondrial function are closely related to the regulation of metabolism signaling including AMPK, which is also widely considered to be closely related to the pathogenesis of AD. In this example, the inventors have explored whether PL201 has an effect on metabolism signaling by detecting the level of AMPK phosphorylation in human neural stem cells via western blot.
Human neural stem cells (3 L) were cultured in DMEM/F12 (containing N2/B27 and 10 ng/ml bFGF), plated to 12 well plates and cultured for 24 hours, then Aβ (5 μM) was added to pre-treat the cells for 30 minutes, and then PL201 ([…]) was added. After co-incubation for 72 hours, the cells were washed with PBS and lysed with Laemmli's sample buffer, then SDS PAGE electrophoresis was performed to detect associated protein bands with rabbit anti-phospo-AMPK and total AMPK antibody.

[6] = system: Human neural stem cells; experiment: Mitochondrial membrane potential, JC-1 staining; format: cell-based; conditions: Aβ-treated cells
Protocol: Mitochondrial membrane potential is the main parameter of mitochondrial function, and mitochondrial dysfunction is a prominent feature of AD brain. In this example, the inventors have explored whether PL201 has the effect of improving mitochondrial function by detecting the level of cell mitochondrial membrane potential of human neural stem cells.
Mitochondria was stained with JC-1 for 20 minutes and washed with washing buffer, then immunofluorescence analysis was performed.

COc1cc(/C=C/C(=O)OC2OC(C)C(O)C(O)C2O)ccc1O [PL201, (α-L-rhamnopyranosyl) ferulic acid ester]
Aβ plaques in brain [1]: less Aβ plaques | expression of inflammatory factor IL-1β [2]: significantly inhibit | expression of inflammatory factor TNFα [2]: significantly inhibit | proliferation level of neural stem cells (EdU staining) [3]: significantly alleviate the inhibitory effect of Aβ | Aβ production (total Aβ in supernatant) [4]: significantly inhibited | AMPK phosphorylation level [5]: reduced the extent of this decline | mitochondrial membrane potential [6]: mitigated the deleterious effect of Aβ to a lesser extent
